One assay has as its system NIH3T3. The assay is described as follows: Displacement of human acidic FGF from FGF receptor of mouse 3T3 cells at 0-200 uM. It is filed as cell-based.
For the next assay, the species on record is Mus musculus. Kind of assay: Mitogenic effect on BALB/c 3T3 A31 fibroblast culture at 0-200 uM. It is filed as functional. The note with it: BALB/c3T3, read-out: ED50 (the source's name).

Take `CC(=O)N[C@@H](Cc1c[nH]c2ccccc12)C(=O)N[C@@H](Cc1ccccc1)C(=O)N[C@H](C(=O)NCC(=O)N[C@@H](CC(C)C)C(=O)N[C@@H](CCCCN)C(=O)N[C@@H](CCCCN)C(=O)N[C@@H](CC(N)=O)C(=O)NCC(=O)N[C@@H](CO)C(=O)N[C@@H](CO)C(=O)N[C@@H](CCCCN)C(=O)N[C@@H](CCCN=C(N)N)C(=O)NCC(=O)N1CCC[C@@H]1C(=O)N[C@@H](CCCN=C(N)N)C(=O)N[C@H](C(N)=O)[C@@H](C)O)C(C)C`: the ID50 with NIH3T3 stood at 50 µM. With `CC(=O)N[C@@H](Cc1c[nH]c2ccccc12)C(=O)N[C@@H](Cc1ccccc1)C(=O)N[C@H](C(=O)NCC(=O)N[C@@H](CC(C)C)C(=O)N[C@@H](CCCCN)C(=O)N[C@@H](CCCCN)C(=O)N[C@@H](CC(N)=O)C(=O)NCC(=O)N[C@@H](CO)C(=O)N[C@@H](CO)C(=O)N[C@@H](CCCCN)C(=O)N[C@@H](CCCN=C(N)N)C(=O)NCC(=O)N1CCC[C@H]1C(=O)N[C@@H](CCCN=C(N)N)C(=O)N[C@H](C(N)=O)[C@@H](C)O)C(C)C`, the EC50 in the assay filed under Mus musculus stood at 20 µM.
